In patent publication US11026942B2, “Agent for preventing and/or treating Alzheimer's disease” (KYOTO UNIVERSITY, priority 2015, dated 2021):

Tests used:
Type in all cases: cell-based, human
[1] = system: Aβ43; assay: Aβ43 in FAD1 iPS cell-derived nerve cells (secondary screening); set-up: scale not given here
Description: (§1) To further study reproducibility of the candidate drugs obtained by the primary screening, secondary screening was conducted. In addition to Aβ40, Aβ42, Aβ42/40 ratio, Aβ38, Aβ43, sAPPα, sAPPβ were also studied and each numerical value was obtained.

[2] = system: Aβ42/40 ratio; assay: Aβ42/40 ratio in FAD1 iPS cell-derived nerve cells (primary/secondary screening, dose dependency); conditions: secondary screening
Source text: (§2) To perform induction from iPS cells to the cerebral cortex nerve early and with high reproducibility, iPS cells introduced with human Neurogenin 2 gene (NGN2) linked to doxycycline-inducible promoter by using PiggyBac were used (FIG. 1a, FIG. 1b, FIG. 4a and FIG. 4b). IPS cells prepared from 4 patients with familial Alzheimer's disease (FAD), 2 patients with sporadic Alzheimer's disease (SAD) and 4 healthy individuals (HC) were used. The iPS cells were established by the method described in Okita K et al., Nature.
(§3) Structural formulas (those in the form of salt or halide are also described as free form) and the general names of the candidate compounds are shown in Table 1.
as §1

[3] = system: sAPPβ; assay: sAPPβ in FAD1 iPS cell-derived nerve cells (secondary screening); set-up: sAPPβ: scale not given here; conditions: secondary screening, FAD1 iPS cell-derived nerve cells
Description: as §1

[4] = system: Aβ42; assay: Aβ42 in FAD1 iPS cell-derived nerve cells (primary/secondary screening, dose dependency); conditions: secondary screening, FAD1 iPS cell-derived nerve cells, numerical value (Aβ change rate)
Source text: as §2, §3, §1

[5] = system: sAPPα; assay: sAPPα in FAD1 iPS cell-derived nerve cells (secondary screening); set-up: scale not given here; conditions: secondary screening, FAD1 iPS cell-derived nerve cells
Description: as §1

[6] = system: Aβ38; assay: Aβ38 in FAD1 iPS cell-derived nerve cells (secondary screening); set-up: scale not given here
Description: as §1

| SMILES | Aβ43 [1] | Ratio Aβ42/40 [2] | sAPPβ [3] | Aβ42 [4] | sAPPα [5] | Aβ38 [6] |
| --- | --- | --- | --- | --- | --- | --- |
| C[C@H](CS)C(=O)N1CCC[C@H]1C(=O)O [compound 57, CAPTOPRIL] | 0.86 | 0.94 | 0.91 | 0.87 | 0.91 | 1.09 |
| COc1ccccc1N1CCN(CC(O)COc2cccc3ccccc23)CC1 (stereo not drawn) [compound 39, NAFTOPIDIL] | 0.9 | 0.86 | 0.64 | 0.86 | 0.73 | 1.1 |
| Cc1ncc(CNC(=O)N(CCCl)N=O)c(N)n1 [compound 83, NIMUSTINE] | 0.89 | 0.86 | 0.89 | 0.84 | 0.81 | 1.04 |
| O=C(O)CCNC(=O)c1ccccc1 [compound 32, BETAMIPRON] | 0.82 | 0.82 | 0.6 | 0.84 | 0.7 | 1.1 |
| Nc1nc(=S)c2[nH]cnc2[nH]1 [compound 122, THIOGUANINE] | 0.92 | 0.88 | 0.9 | 0.69 | 0.95 | 0.91 |
| CN(C)C(=O)C(CCN1CCC(O)(c2ccc(Cl)cc2)CC1)(c1ccccc1)c1ccccc1 [compound 6, LOPERAMIDE] | 0.88 | 0.93 | 0.78 | 0.88 | 0.89 | 1.03 |
| CCCc1nc(C(C)(C)O)c(C(=O)OCc2oc(=O)oc2C)n1Cc1ccc(-c2ccccc2-c2nn[nH]n2)cc1 [compound 61, OLMESARTAN MEDOXOMIL] | 0.9 | 0.86 | 0.86 | 0.82 | 0.8 | 0.85 |
| C=CCSCC1Nc2cc(Cl)c(S(N)(=O)=O)cc2S(=O)(=O)N1 (stereo not drawn) [compound 117, ALTHIAZIDE] | 0.91 | 0.91 | 0.7 | 0.81 | 0.92 | 1.03 |
| CC[C@H](C)C(=O)O[C@H]1C[C@@H](C)C=C2C=C[C@H](C)[C@H](CC[C@@H]3C[C@@H](O)CC(=O)O3)[C@H]21 [compound 46, LOVASTATIN] | 1.09 | 0.88 | 1.06 | 0.98 | 1.01 | 1.17 |
| CCCCOC(=O)c1ccc(O)cc1 [compound 53, BUTYL PARABEN] | 0.81 | 1.02 | 0.69 | 0.94 | 0.74 | 1.04 |
| O=C(O)[C@H]1/C(=C/CO)O[C@@H]2CC(=O)N21 [compound 118, CLAVULANIC ACID] | 0.75 | 0.88 | 1 | 0.84 | 0.88 | 1.01 |
| CCOc1ccc(NC(=O)CC(C)O)cc1 (stereo not drawn) [compound 70, BUCETIN] | 0.85 | 0.88 | 0.75 | 0.82 | 0.75 | 1.02 |
| c1ccc2c(c1)OCC(C1=NCCN1)O2 (stereo not drawn) [compound 43, IDAZOXAN] | 0.97 | 0.99 | 0.81 | 0.93 | 0.84 | 1.03 |
| COc1cc(NC(C)CCCN)c2ncccc2c1 (stereo not drawn) [compound 77, PRIMAQUINE] | 0.89 | 0.95 | 0.85 | 0.87 | 0.79 | 1.07 |
| Cn1c(=O)c2[nH]c(Cl)nc2n(C)c1=O [compound 124, 8-chlorotheophylline] | 0.97 | 1.01 | 1.02 | 0.98 | 0.97 | 1.06 |
| CN1CCN(C2=Nc3ccccc3Oc3ccc(Cl)cc32)CC1 [compound 25, LOXAPINE] | 1.14 | 0.98 | 1.11 | 0.94 | 1.15 | 1.11 |
| OC1CCCCC1N1CCC(c2ccccc2)CC1 (stereo not drawn) [compound 22, VESAMICOL] | 0.87 | 0.97 | 0.74 | 0.9 | 0.89 | 1 |

| SMILES | Aβ43 [1] | Ratio Aβ42/40 [2] | sAPPβ [3] | Aβ42 [4] | sAPPα [5] | Aβ38 [6] |
| --- | --- | --- | --- | --- | --- | --- |
| C#C[C@]1(O)CC[C@H]2[C@@H]3CCC4=Cc5oncc5C[C@]4(C)[C@H]3CC[C@@]21C [compound 102, DANAZOL] | 1.07 | 1.04 | 0.81 | 0.93 | 0.79 | 1.02 |
| CC(C(O)c1ccc(O)cc1)N1CCC(Cc2ccccc2)CC1 (stereo not drawn) [compound 44, IFENPRODIL] | 1.03 | 0.96 | 1.09 | 1 | 1.13 | 1.23 |
| CCn1cc(C(=O)O)c(=O)c2cnc(N3CCCC3)nc21 [compound 69, PIROMIDIC ACID] | 0.79 | 0.86 | 0.69 | 0.78 | 0.86 | 1.01 |
| CC(C)CC(N(C)C)C1(c2ccc(Cl)cc2)CCC1 (stereo not drawn) [compound 126, SIBUTRAMINE] | 0.87 | 0.87 | 0.92 | 0.88 | 0.8 | 1.05 |
| c1ccc2[nH]c(-c3cscn3)nc2c1 [compound 20, THIABENDAZOLE] | 0.79 | 0.88 | 0.67 | 0.84 | 0.79 | 1.05 |
| CC(=O)OC1CCC2(C)C(=CCC3C4CCC(=O)C4(C)CCC32)C1 (stereo not drawn) [compound 109, PRASTERONE ACETATE] | 0.85 | 0.7 | 0.55 | 0.68 | 0.69 | 0.9 |
| CCCCCCCCCCCCCCCC[N+](C)(C)C [compound 113, CETRIMONIUM] | 0.56 | 0.74 | 0.59 | 0.71 | 0.76 | 0.56 |
| FC(F)(F)COCC(F)(F)F [compound 130, FLUROTHYL] | 0.81 | 0.85 | 0.69 | 0.8 | 0.79 | 1.03 |
| CSc1ccc2c(c1)C(N1CCN(C)CC1)Cc1ccccc1S2 (stereo not drawn) [compound 31, METITEPINE] | 0.88 | 0.86 | 0.66 | 0.83 | 0.76 | 1.03 |
| CC(C)[N+](C)(CCC(C(N)=O)(c1ccccc1)c1ccccc1)C(C)C [compound 19, ISOPROPAMIDE] | 0.95 | 1.24 | 0.74 | 0.88 | 0.84 | 1.09 |
| Oc1ccc(OCc2ccccc2)cc1 [compound 23, MONOBENZONE] | 0.89 | 0.91 | 0.56 | 0.82 | 0.74 | 1.05 |
| CCCCCCCCCCCCCCCCCCCCCCO [compound 111, DOCOSANOL] | 0.83 | 0.9 | 0.83 | 0.86 | 0.79 | 1.03 |
| Nc1c2c(nc3ccccc13)CCCC2 [compound 18, TACRINE] | 1.21 | 1.02 | 1.23 | 1 | 1.04 | 1.18 |
| COc1ccc(CCN(C)CCCC(C#N)(c2ccc(OC)c(OC)c2)C(C)C)cc1OC (stereo not drawn) [compound 75] | 0.75 | 0.91 | 0.71 | 0.74 | 0.81 | 0.89 |
| c1ccc(-c2ccc(C(c3ccccc3)n3ccnc3)cc2)cc1 (stereo not drawn) [compound 27, BIFONAZOLE] | 0.99 | 0.84 | 1.19 | 0.84 | 1.04 | 1.06 |
| c1cnc(N2CCN(Cc3ccc4c(c3)OCO4)CC2)nc1 [compound 36, PIRIBEDIL] | 1.09 | 0.83 | 0.82 | 0.87 | 0.92 | 1.11 |
| NCCc1cnc[nH]1 [compound 121, HISTAMINE] | 1.23 | 1.09 | 1.15 | 1.02 | 1.08 | 1.22 |
